Data taken from PMC8069832, “New Amides and Phosphoramidates Containing Selenium: Studies on Their Cytotoxicity and Antioxidant Activities in Breast Cancer” (Antioxidants, 2021).
Where two headings read alike, the source gives them in different places.

Columns and labels:
HT-29 = assay: cells; conditions: Homo sapiens, HT-29, 48 h; for activity at 10 µM: read-out: Cell growth (%) HT-29; for GI50: read-out: GI50 HT-29; for CC50: read-out: LC50 HT-29; for IC (TGI): read-out: TGI HT-29
PC-3 = assay: cells; assay type: cell-based; conditions: Homo sapiens; for LC50: read-out: LC50 PC-3; for GI50: read-out: GI50 PC-3; for IC (TGI): read-out: TGI PC-3
Method in brief: (§1)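 MTT cytotoxicity: 1 × 10^4 cells/well in RPMI + 10% FBS exposed to increasing compound concentrations for 48 h at 37 °C, 5% CO2, then MTT for 4 h and formazan dissolved in DMSO. Initial screen at 50 and 10 µM; at least 3 independent experiments in quadruplicate, SEM reported.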

HTB-54 = assay: cells; assay type: cell-based; conditions: Homo sapiens; for CC50: read-out: LC50 HTB54; for GI50: read-out: GI50 HTB54; for IC (TGI): read-out: TGI HTB54
Method in brief: as §1

MCF-7 [1] = assay: cells; conditions: Homo sapiens, MCF7, 48 h; for activity at 10 µM: read-out: Cell growth (%) MCF-7; for CC50: read-out: LC50 MCF-7; for IC (TGI): read-out: TGI MCF-7; for GI50: read-out: GI50 MCF-7, 48 h, average ± SEM
MCF-7 [2] = assay: Cell death (subdiploid cells), Apo-Direct kit TUNEL flow cytometry; assay type: cell-based, human; conditions: 24 h, increasing doses (I.1f 10 to 80 µM)
Procedure: For the MCF-7 cell line, both cell cycle analysis and the cell death percentage were determined using the Apo-Direct kit (BD Pharmingen) based on the TUNEL technique, according to the manufacturer’s instructions. Cells were seeded in 25 cm^2 flasks (3 × 10^6 for 24 h of treatment, 2 × 10^6 for 48 h and 10^6 for 72 h) treated with DMSO (negative control), 6 µM of camptothecin (positive control) and different concentrations of I.1f, I.2f and II.2d.
After treatment, cells were collected and fixed with 1% paraformaldehyde (Sigma) in PBS (pH = 7.4), incubated in ice for 40 min, collected by centrifugation, washed with PBS and incubated with 70% ethanol for 30 min at −20 °C. After fixation, cells were washed twice with PBS and incubated for 1 h at 37 °C with FITC dUTP-DNA Labeling Solution. Cells were then rinsed and incubated in the dark for 30 min at room temperature with PI/RNase staining buffer before being analyzed by flow cytometry (Coulter Epics XL, Beckman Coulter Flow cytometer). Then, cells were treated with compounds I.1f (80 µM), I.2f (30 µM) and II.2d (5 µM) at different times (from 8 to 72 h) following the same methodology.
Apoptosis and cell cycle arrest are typical mechanisms of action for many anticancer drugs, including selenocompounds [34, 35, 36]. In a first approach, the effect of the selected compounds on cell cycle progression and the induction of apoptosis was studied in MCF-7 cell cultures. Analyses were performed by flow cytometry using the Apo-Direct kit, based on the TUNEL technique under the conditions described by the manufacturer. The cells were treated with the corresponding compound at different concentrations and time points. Camptothecin was used as a positive control at 6 µM.

BEAS-2B = assay: MTT cytotoxicity in nonmalignant bronchial epithelium cells; assay type: cell-based; conditions: for GI50 / IC (TGI): Homo sapiens, BEAS-2B, 48 h; for GI50: read-out: GI50 BEAS-2B; for IC (TGI): read-out: TGI BEAS-2B; for Selectivity index (SI) = GI50 (BEAS-2B)/GI50 (HTB-54): lung
Method in brief: (§2)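 184B5 cells grown in supplemented DMEM/F12, BEAS-2B in RPMI with 10% FBS. 1 × 10^4 cells/well exposed to increasing compound concentrations for 48 h at 37 °C, 5% CO2, then MTT 4 h and formazan dissolved in DMSO. At least 3 independent experiments in quadruplicate; cisplatin as reference.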

[3] = as above; assay type: cell-based; conditions: human
Method in brief: as §2

MCF-7 [4] = assay: Western blot of autophagy and apoptosis markers; assay type: cell-based, human; conditions: for Beclin-1 and LC3B levels / Phosphorylation of AMPK and JNK / SQSTM1/p62 (autophagic flux): I.1f 80 µM 48 h, I.2f 30 µM 24 h
CCRF-CEM = assay: cells; conditions: Homo sapiens, 48 h; for activity at 10 µM: read-out: Cell growth (%) CCRF-CEM; for GI50: read-out: GI50 CCRF-CEM; for CC50: read-out: LC50 CCRF-CEM; for IC (TGI): read-out: TGI CCRF-CEM
[5] = nonmalignant cells, 48 h, read-out: LC50 BEAS-2B

Structure (SMILES)	activity at 10 µM (HT-29) [%]	GI50 (HT-29) [µM]	CC50 (HT-29) [µM]	IC (TGI) (HT-29) [µM]	LC50 (PC-3; PC-3, 48 h) [µM]	GI50 (PC-3; PC-3, 48 h, average ± SEM) [µM]	IC (TGI) (PC-3; PC-3, 48 h, average ± SEM) [µM]	CC50 (HTB-54; HTB-54, 48 h) [µM]	GI50 (HTB-54; HTB-54, 48 h, average ± SEM) [µM]	IC (TGI) (HTB-54; HTB-54, 48 h, average ± SEM) [µM]	activity at 10 µM (MCF-7 [1]) [%]	CC50 (MCF-7 [1]) [µM]	IC (TGI) (MCF-7 [1]) [µM]	Cell death (subdiploid cells) (MCF-7 [2])	GI50 (BEAS-2B; nonmalignant cells) [µM]	Selectivity index (SI) = GI50 (BEAS-2B)/GI50 (HTB-54) (BEAS-2B)	activity at 10 µM (CCRF-CEM) [%]	GI50 (CCRF-CEM) [µM]	CC50 (CCRF-CEM) [µM]	IC (TGI) (CCRF-CEM) [µM]	further results
O=C(Nc1ccc([Se][Se]c2ccc(NC(=O)c3ccc(C(F)(F)F)cc3)cc2)cc1)c1ccc(C(F)(F)F)cc1 [I.1f]	-18.4	0.1	> 100	5.7 ± 0.9	65 ± 0.6	1.2 ± 1.5	32.9 ± 3.1	75.4 ± 1.7	25.1 ± 3.1	50.2 ± 2.4	9.1	54.6 ± 0.7	13 ± 0.3	did not stimulate cell death	10.7	0.42	36.5	4.7 ± 0.7	79.2 ± 4.1	31.7 ± 1.8	IC (TGI) (BEAS-2B; nonmalignant cells): 41.8 µM; LC50 (50% lethal concentration) at 48 h [3]: 72.9 µM; Beclin-1 and LC3B levels (MCF-7 [4]): increased levels; Phosphorylation of AMPK and JNK (MCF-7 [4]): induced JNK and AMPK phosphorylation; SQSTM1/p62 (autophagic flux) (MCF-7 [4]): downregulated
N#C[Se]c1ccc(NC(=O)c2ccc(C(F)(F)F)cc2)cc1 [I.2f]	26.7	0.6 ± 0.4	> 100	79.2 ± 0.3		28.5 ± 0.7	53.1 ± 0.6		29.8 ± 1.5	57.1 ± 3.3	44.8	42.2 ± 0.8	6.2 ± 0.4	provoked a significant increase in the number of death cells	20.8	0.70	54.6	7.3 ± 0.5	> 100	> 100	LC50 (PC-3; PC-3, 48 h, average ± SEM): 77.7 ± 0.6 µM; CC50 (HTB-54; HTB-54, 48 h, average ± SEM): 84.4 ± 5.2 µM; GI50 (MCF-7 [1]): < 1 µM; IC (TGI) (BEAS-2B; nonmalignant cells): 47 µM; LC50 (50% lethal concentration) [3, 5]: 73.2 µM; Beclin-1 and LC3B levels (MCF-7 [4]): increased levels; Phosphorylation of AMPK and JNK (MCF-7 [4]): induced JNK and AMPK phosphorylation; SQSTM1/p62 (autophagic flux) (MCF-7 [4]): downregulated
CCOP(=O)(Nc1ccc([Se]C#N)cc1)OCC [II.2d]	-63.4	5 ± 0.8	9.5 ± 0.4	7.3 ± 0.2	99.9 ± 9.5			4.8 ± 0.2			-17.2	8.4 ± 0.1	4.1 ± 0.1	provoked a significant increase in the number of death cells		2.85	-87.4	0.2	0.9 ± 0.1	0.5	GI50 (PC-3; PC-3, 48 h): 1.9 ± 0.1 µM; IC (TGI) (PC-3; PC-3, 48 h): 4.4 ± 0.1 µM; GI50 (HTB-54; HTB-54, 48 h): 1.6 ± 0.4 µM; IC (TGI) (HTB-54; HTB-54, 48 h): 3.2 ± 0.3 µM; GI50 (MCF-7 [1]): < 1 µM; GI50 (BEAS-2B): 4.65 µM; IC (TGI) (BEAS-2B): 6.59 µM; LC50 (50% lethal concentration) at 48 h [3, 5]: 8.3 µM; BAX, p21, p53 levels (MCF-7 [4]): Significantly increased levels; Bcl-2 levels (MCF-7 [4]): decreased levels
